Values quoted from earlier work in article PMC6101361 (PLoS ONE, 2018).

System: anti-ß1EC2-induced heart failure in rats
Details: daily applications; ref [20]
Excerpt: The observed trend to ...

## CC(C)NCC(O)COc1ccc(COCCOC(C)C)cc1 (stereo not shown) [bisoprolol]
  effect on anti-ß1EC2–induced heart failure: only delayed progression of anti-ß1EC2–induced heart failure
